The source of these data is patent publication EP0326329B1, “Quinazoline derivatives useful as insecticides” (Dow AgroSciences LLC, priority 1988, dated 1989).

Each structure is given as a SMILES string.

Common to all, as to format: in vivo
Test [1] concerns southern armyworm (Spodopetra eridania Cramer). The experiment in a line: Mite/insect screen, sprayed squash leaves (SAW). To be noted: Spodoptera eridania, percent mortality, read-out: SAW RESULTS %; for mortality at 200 ppm: spray rate 200 ppm; for mortality at 400 ppm: spray rate 400 ppm. On the procedure: (§1) The compounds of Examples 1-203 were tested for miticidal and insecticidal activity in the following mite/insect screen.
(§2) Each test compound was formulated by dissolving the compound in acetone/alcohol (50:50) mixture containing 23 g of "TOXIMUL R" (sulfonate/nonionic emulsifier blend) and 13 g of "TOXIMUL S" (sulfonate/nonionic emulsifier blend) per liter. These mixtures were then diluted with water to give the indicated concentrations.
(§3) Other plants in the same treatment pot were left uninfested. The leaves were then sprayed with 5 ml of test solution using a DeVilbiss atomizing sprayer at 10 psi. Both surfaces of the leaves were covered until runoff, and then allowed to dry for one hour. Two uninfested leaves were then excised and placed into a Petri dish containing larval southern armyworm (Spodopetra eridania Cramer).
(§4) After standard exposure periods, percent mortality and phytotoxicity were evaluated. […]

The subject of test [2] is Southern corn rootworm (Diabrotica undecimpuctata howardi Barber). Kind of test: Mite/insect screen, soil treatment (CRW). To be noted: Diabrotica, percent mortality, soil treatment, read-out: CRW RESULTS %; for mortality at 12 ppm: CRW rate 12.00 ppm; for mortality at 24 ppm: CRW rate 24.00 ppm. The protocol:
as §1, §2
Activity on Southern corn rootworm (Diabrotica undecimpuctata howardi Barber) was evaluated by adding two ml of tap water, a presoaked corn seed, and 15 g of dry sandy soil to a one ounce plastic container. The soil was treated with 1 mL of test solution containing a pre-determined concentration of test compound. After six to 12 hours of drying, five 2-3 instar corn rootworm larvae were added to the individual cups, which were then capped and held at 23°C.
as §4

For test [3], the system named is Botrytis cinerea (gray mold). Kind of test: Greenhouse Test 1, foliar spray fungicide screen (GRAY MOLD), host grape berries. Conditions: disease control rating, 400 ppm (+++ at 100 ppm).
Test [4] concerns Twospotted spider mites (Tetranychus urticae Koch). Kind of test: Mite/insect screen, sprayed squash cotyledons (SM). To be noted: Tetranychus urticae, percent mortality, read-out: SM RESULTS %; for mortality at 200 ppm: spray rate 200 ppm; for mortality at 400 ppm: spray rate 400 ppm. The protocol:
as §1, §2, §3, §4

For test [5], the system named is Pyricularia oryzae (rice blast). Conditions: disease control rating, foliar spray, host rice; 400 ppm (+++ at 100 ppm).
For test [6], the system named is Pseudoperonospora cubensis (downy mildew). The experiment in a line: Greenhouse Test 1, foliar spray fungicide screen (DOWN MDEW), host squash. Conditions: disease control rating, 400 ppm (+++ at 100 ppm).
For test [7], the system named is Erysiphe graminis tritici (powdery mildew). Kind of test: Greenhouse Test 1, foliar spray fungicide screen (POWD MDEW), host wheat. To be noted: disease control rating, 400 ppm (+++ at 100 ppm).
Test [8] concerns melon aphids (Aphis gossypii Glover). The experiment in a line: Mite/insect screen, sprayed squash cotyledons (MA). To be noted: Aphis gossypii, percent mortality, read-out: MA RESULTS %; for mortality at 200 ppm: spray rate 200 ppm; for mortality at 400 ppm: spray rate 400 ppm. The protocol:
as §1, §2, §3, §4

The test system of test [9] is Puccinia recondita tritici (leaf rust). The experiment in a line: Greenhouse Test 1, foliar spray fungicide screen (LEAF RUST), host wheat. To be noted: disease control rating, 400 ppm (+++ at 100 ppm).

In the case of `FC(F)(F)c1cccc(C(F)(F)F)c1CCOc1ncnc2ccccc12` [Example 145, 4-[2-[2,6-bis(trifluoromethyl)phenyl]ethoxy]quinazoline], in test [1], the mortality at 200 ppm was determined as 0% and the mortality at 400 ppm stood at 0%. Besides, in test [2], the mortality at 12 ppm was 0% and the mortality at 24 ppm amounted to 0%. Moreover, the “GRAY MOLD” value in [3] is on record as “- (- = 0-19% control at 400 ppm)”. In test [4], the mortality at 200 ppm came out at 80% and the mortality at 400 ppm came out at 0%. Also, the “RICE BLAST” value in test [5] is “+++ (+++ = 90-100% control at 100 ppm)”. In addition, the “DOWN MDEW” value in [6] was “++ (++ = 90-100% control at 400 ppm)”. Further, in test [7], the “POWD MDEW” value is given as “+ (+ = 20-89% control at 400 ppm)”. Also, in test [8], the mortality at 200 ppm is 80% and the mortality at 400 ppm was 80%. The “LEAF RUST” value in [9] is “+ (+ = 20-89% control at 400 ppm)”.

`COc1ccccc1CCOc1ncnc2c(F)cccc12` [Example 131, 8-fluoro-4-[2-(2-methoxyphenyl)ethoxy]quinazoline]: the mortality at 400 ppm in [1], in [4] and in test [8] was 0% in each case. In addition, the mortality at 24 ppm in test [2] was determined as 0%. Also, the “GRAY MOLD” value in [3] is recorded as “- (- = 0-19% control at 400 ppm)”. Further, in [5], the “RICE BLAST” value is given as “+++ (+++ = 90-100% control at 100 ppm)”. The “DOWN MDEW” value in [6] is given as “+++ (+++ = 90-100% control at 100 ppm)”. The “POWD MDEW” value in [7] is “+++ (+++ = 90-100% control at 100 ppm)”. Moreover, the “LEAF RUST” value in test [9] is recorded as “+++ (+++ = 90-100% control at 100 ppm)”.

As for `Fc1cccc2c(OCCc3ccc(Cl)cc3)ncnc12` [Example 55, 4-[2-(4-chlorophenyl)ethoxy]-8-fluoroquinazoline], the mortality at 200 ppm in test [1], in [4] and in test [8] was 100% in each case. Moreover, the mortality at 400 ppm in [1], in test [4] and in [8] was 0% each time. The mortality at 12 ppm in [2] was determined as 0%. In addition, the mortality at 24 ppm in test [2] is 0%. In addition, the “GRAY MOLD” value in test [3] is “- (- = 0-19% control at 400 ppm)”. Moreover, in test [5], the “RICE BLAST” value is “+++ (+++ = 90-100% control at 100 ppm)”. Also, the “DOWN MDEW” value in test [6] is listed as “+++ (+++ = 90-100% control at 100 ppm)”. In test [7], the “POWD MDEW” value is “+++ (+++ = 90-100% control at 100 ppm)”. For the same molecule, the “LEAF RUST” value in [9] is reported as “+++ (+++ = 90-100% control at 100 ppm)”.

For `COc1ccc(CCOc2ncnc3ccccc23)cc1OC` [Example 73, 4-[2-(3,4-dimethoxyphenyl)ethoxy]quinazoline], the mortality at 400 ppm in [1], in test [4] and in test [8] was 0% in each case. The mortality at 24 ppm in test [2] was 100%. The “GRAY MOLD” value in test [3] is reported as “- (- = 0-19% control at 400 ppm)”. Also, the “RICE BLAST” value in test [5] is given as “- (- = 0-19% control at 400 ppm)”. Moreover, the “DOWN MDEW” value in test [6] was “+++ (+++ = 90-100% control at 100 ppm)”. In addition, in test [7], the “POWD MDEW” value is listed as “++ (++ = 90-100% control at 400 ppm)”. Further, the “LEAF RUST” value in test [9] was “+++ (+++ = 90-100% control at 100 ppm)”.

As for `Fc1cccc2c(OCCc3ccc(C(F)(F)F)cc3)ncnc12` [Example 118, 8-fluoro-4-[2-(4-trifluoromethyl)ethoxy]quinazoline], in [1], the mortality at 200 ppm worked out at 60% and the mortality at 400 ppm came out at 100%. In test [2], the mortality at 12 ppm was 0% and the mortality at 24 ppm was 0%. The “GRAY MOLD” value in [3] is given as “- (- = 0-19% control at 400 ppm)”. In test [4], the mortality at 200 ppm amounted to 100% and the mortality at 400 ppm was found to be 0%. Also, in test [5], the “RICE BLAST” value is on record as “+++ (+++ = 90-100% control at 100 ppm)”. Also, in test [6], the “DOWN MDEW” value is listed as “+++ (+++ = 90-100% control at 100 ppm)”. Also, the “POWD MDEW” value in test [7] is given as “+++ (+++ = 90-100% control at 100 ppm)”. In test [8], the mortality at 200 ppm worked out at 100% and the mortality at 400 ppm was 0%. Besides, in [9], the “LEAF RUST” value is “+++ (+++ = 90-100% control at 100 ppm)”.

For `Cc1ccccc1CCOc1ncnc2ccccc12` [Example 103, 4-[2-(2-methylphenyl)ethoxy]quinazoline], the mortality at 400 ppm in test [1], in [4] and in test [8] was 0% throughout. In addition, the mortality at 24 ppm in test [2] was determined as 0%. Besides, the “GRAY MOLD” value in [3] is “- (- = 0-19% control at 400 ppm)”. Further, the “RICE BLAST” value in test [5] is reported as “+ (+ = 20-89% control at 400 ppm)”. In addition, the “DOWN MDEW” value in test [6] is “+ (+ = 20-89% control at 400 ppm)”. Also, the “POWD MDEW” value in test [7] is “+ (+ = 20-89% control at 400 ppm)”. Moreover, in test [9], the “LEAF RUST” value is listed as “+++ (+++ = 90-100% control at 100 ppm)”.

Consider `COc1cccc(CCOc2ncnc3ccccc23)c1` [Example 13, 4-[2-(3-methoxyphenyl)ethoxy]quinazoline], for which the figures for the mortality at 400 ppm in [1], in [4] and in test [8] were 0%, 90% and 90%, respectively. In addition, the mortality at 24 ppm in [2] is 0%. Moreover, the “GRAY MOLD” value in test [3] is given as “- (- = 0-19% control at 400 ppm)”. Besides, the “RICE BLAST” value in test [5] was “+++ (+++ = 90-100% control at 100 ppm)”. The “DOWN MDEW” value in [6] is on record as “+++ (+++ = 90-100% control at 100 ppm)”. Further, in [7], the “POWD MDEW” value was “+++ (+++ = 90-100% control at 100 ppm)”. For the same molecule, the “LEAF RUST” value in [9] was “+++ (+++ = 90-100% control at 100 ppm)”.

As for `c1ccc(Oc2ccc(CCOc3ncnc4ccccc34)cc2)cc1` [Example 69, 4-[2-(4-phenoxyphenyl)ethoxy]quinazoline], the mortality at 400 ppm in test [1] was 100%; in test [4] it was 100%; in test [8], 0%. Also, the mortality at 24 ppm in [2] stood at 0%. The “GRAY MOLD” value in test [3] is on record as “- (- = 0-19% control at 400 ppm)”. Besides, the “RICE BLAST” value in test [5] was “+++ (+++ = 90-100% control at 100 ppm)”. Moreover, the “DOWN MDEW” value in [6] is “+++ (+++ = 90-100% control at 100 ppm)”. In addition, the “POWD MDEW” value in [7] is “+++ (+++ = 90-100% control at 100 ppm)”. The “LEAF RUST” value in [9] was “+++ (+++ = 90-100% control at 100 ppm)”.

For the molecule `Fc1cccc2c(NCCc3ccc(-c4ccccc4)cc3)ncnc12` [Example 102, 8-fluoro-N-[2-(1,1'-biphenyl)-4-ylethyl]-4-quinazolinamine], in [1], the mortality at 200 ppm was 80% and the mortality at 400 ppm came to 100%. In addition, in test [2], the mortality at 12 ppm was 0% and the mortality at 24 ppm is 0%. Moreover, the “GRAY MOLD” value in test [3] was “++ (++ = 90-100% control at 400 ppm)”. In addition, in [4], the mortality at 200 ppm turned out to be 80% and the mortality at 400 ppm was found to be 90%. Further, the “RICE BLAST” value in test [5] is “+++ (+++ = 90-100% control at 100 ppm)”. Further, the “DOWN MDEW” value in test [6] was “++ (++ = 90-100% control at 400 ppm)”. Besides, in [7], the “POWD MDEW” value is “++ (++ = 90-100% control at 400 ppm)”. In [8], the mortality at 200 ppm is 80% and the mortality at 400 ppm is 90%. For the same molecule, the “LEAF RUST” value in [9] was “+++ (+++ = 90-100% control at 100 ppm)”.
